Test results as given in US8044100B2, “Methods and compositions for treating amyloid-related diseases” (Bellus Health Inc., priority 2004, dated 2011).

System: Aβ peptides (Aβ40, Aβ42) in the plasma and brain of TgCRND8 mice
Assay: Short term treatment (14 or 28 days) in TgCRND8 mice: Aβ levels in plasma and brain by ELISA;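 for Aβ40 Change Insoluble: symbols grade percent change in Aβ versus untreated control with plus for increase and minus for decrease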;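 for Aβ40 Change Soluble: symbols grade percent change in Aβ versus untreated control with plus for increase and minus for decrease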;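 for Aβ42 Change Insoluble: symbols grade percent change in Aβ versus untreated control with plus for increase and minus for decrease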
Assay type: in vivo, mouse
Settings: for Aβ40 Change / Aβ42 Change: plasma
Method: The short term therapeutic effect of 19 compounds of the invention was studied. These compounds were administered over a 14 or 28 day period at the end of which the levels of Aβ peptides in the plasma and brain of TgCRND8 animals were determined.
Male and female transgenic mice from the 3rd and 4th B6C3F1 generations were used in this example and given daily subcutaneous or oral administrations of one of a series of compounds for 14 or 28 days. The following abbreviations are used to designate these animals from the 3rd and 4th generation backcross in the present protocol: TgCRND8-2.B6C3F1(N3); TgCRND8-2.B6C3F1 (N4).
Baseline animals (Group 1) consisted of naive TgCRND8-2. B6C3F1(N3) at 11±1 weeks of age. These mice were used to determine the Aβ levels in the plasma and brain of naive transgenic animals at the initiation of treatment.
Starting at 11 weeks of age (±1 week) animals received daily administration of their respective treatment for a period of 14 or 28 days (groups 2-21), at a dose of 250 mg/kg at 10 ml/kg or of vehicle only (water; group 2) or 1% methyl cellulose only (group 21). The route of administration was subcutaneous for water-soluble compounds and oral for compounds solubilized in methylcellulose 1%. (MC 1%). At the end of the treatment periods, plasma and perfused brains were collected for quantification of Aβ levels.
At 11±1 weeks of age for the Baseline group, and at the end of the treatment period (14 or 28 days) for Groups 2 to 21, at 24 hours after the last compound administration animals were sacrificed and samples collected. An approximate blood volume of 500 μl was collected from the orbital sinus and kept on ice until centrifugation at 4° C. at a minimum speed of 3,000 rpm for 10 minutes. Plasma samples were immediately frozen and stored at −80° C. pending analysis. The brains were removed, frozen, and stored at −80° C. awaiting analysis.
Brains were weighted frozen and homogenized with 4 volumes of ice cold 50 mM Tris-Cl pH 8.0 buffer with protease inhibitor cocktail (4 mL of buffer for 1 g of wet brain). Samples were spun at 15000 g for 20 minutes and the supernatants were transferred to fresh tubes. One hundred fifty (150) μl from each supernatant were mixed with 250 μl of 8M guanidine-HCL/50 mM Tris-HCL pH 8.0 (ratio of 0.6 vol supernatant:1 vol 8M guanidium/Tris-HCL 50 mM pH8.0) and 400 μL 5 M guanidium/Tris-HCL 50 mM pH8.0 were added. The tubes were vortexed for 30 seconds and frozen at −80° C. In parallel, pellets were treated with 7 volumes of 5 M guanidine-HCL/50 mM Tris-HCL pH 8.0 (7 mL of guanidine for 1 g of wet brain), vortexed for 30 seconds and frozen at −80° C. Samples were thawed at room temperature, sonicated at 80° C. for 15 minutes and frozen again. This cycle was repeated 3 times to ensure homogeneity and samples were returned to −80° C. pending analysis.
Aβ levels were evaluated in plasma and brain samples by ELISA using Human Aβ40 and Aβ42 Fluorometric ELISA kits from Biosource (Cat. No. 89-344 and 89-348) according to manufacturer's recommended procedures. In short, samples were thawed at room temperature, sonicated for 5 minutes at 80° C. (sonication for brain homogenates; no sonication for plasma samples) and kept on ice. Aβ peptides were captured using 100 μl of the diluted samples to the plate and incubated without shaking at 4° C. overnight. The samples were aspirated and the wells were rinsed 4 times with wash buffer obtained from the Biosource ELISA kit. The anti-Aβ40 or anti-Aβ42 rabbit polyclonal antiserum (specific for the Aβ40 or Aβ42 peptide) was added (100 μl) and the plate was incubated at room temperature for 2 hours with shaking. The wells were aspirated and washed 4 times before adding 100 μl of the alkaline phosphatase labeled anti-rabbit antibody and incubating at room temperature for 2 hours with shaking. The plates were then rinsed 5 times and the fluorescent substrate (100 μl) was added to the plate. […]

[1] = brain homogenate, Day 14, vehicle group, 250 mg/kg daily
[2] = brain homogenate, Day 28, vehicle group, 250 mg/kg daily
[3] = Day 14, vehicle (water) group, 250 mg/kg daily subcutaneous
[4] = Day 28, vehicle (water) group, 250 mg/kg daily subcutaneous
[5] = brain homogenate, Day 14, methylcellulose group, daily oral
[6] = brain homogenate, Day 28, methylcellulose group, daily oral
[7] = brain homogenate, Day 28, vehicle group, 250 mg/kg daily, total, not soluble/insoluble

| SMILES | Aβ40 Change Insoluble [1] | Aβ42 Change Insoluble [1] | Aβ42 Change Soluble [1] | Aβ40 Change Insoluble [2] | Aβ40 Change Soluble [2] | Aβ42 Change Insoluble [2] | Aβ42 Change Soluble [2] | also measured |
| --- | --- | --- | --- | --- | --- | --- | --- | --- |
| O=S(=O)(O)CC(O)CNC1CCCCC1 (centres unmarked) [DC] | −− (decreases of 20 to 38%) | −− (decreases of 20 to 38%) | + (increases in the levels of Aβ (relative to untreated control) of 20 to 39%) | + (increases in the levels of Aβ (relative to untreated control) of 20 to 39%) | − (Decreases in the levels of Aβ of 5 to 19%) | +++ (increases of 70% or higher) | ++ (increases of 40 to 69%) | Aβ40 Change [3]: ++ (increases of 40 to 69%); Aβ42 Change [3]: ++ (increases of 40 to 69%); Aβ40 Change [4]: ++ (increases of 40 to 69%) |
| CC12CC3CC(C)(C1)CC(NCCCS(=O)(=O)O)(C3)C2 [CY] |  |  |  |  |  |  |  | Aβ40 Change Soluble [5]: − (Decreases in the levels of Aβ of 5 to 19%); Aβ42 Change Insoluble [5]: ++ (increases of 40 to 69%); Aβ42 Change Soluble [5]: +++ (increases of 70% or higher); Aβ40 Change Insoluble [6]: +++ (increases of 70% or higher); Aβ40 Change Soluble [6]: ++ (increases of 40 to 69%); Aβ42 Change Insoluble [6]: + (increases in the levels of Aβ (relative to untreated control) of 20 to 39%); Aβ42 Change Soluble [6]: +++ (increases of 70% or higher); Aβ42 Change (Day 28, methylcellulose group, daily oral): + (increases in the levels of Aβ (relative to untreated control) of 20 to 39%) |
| COC[C@H](NCCCS(=O)(=O)O)[C@@H](O)c1ccccc1 [EG] | −− (decreases of 20 to 38%) | −− (decreases of 20 to 38%) | −− (decreases of 20 to 38%) | −− (decreases of 20 to 38%) |  | −− (decreases of 20 to 38%) |  | Aβ40 Change Soluble [1]: − (Decreases in the levels of Aβ of 5 to 19%) |
| CCC(CC)NCCCS(=O)(=O)O [DD] | − (Decreases in the levels of Aβ of 5 to 19%) |  |  | − (Decreases in the levels of Aβ of 5 to 19%) |  |  |  |  |
| O=S(=O)(O)CCCNCC(O)c1ccccc1 (centres unmarked) [DY] | −− (decreases of 20 to 38%) | −− (decreases of 20 to 38%) |  | −−− (decreases of 39% or more) |  | −− (decreases of 20 to 38%) | − (Decreases in the levels of Aβ of 5 to 19%) |  |
| C#CC1(NCCCS(=O)(=O)O)CCCCC1 [DX] | −− (decreases of 20 to 38%) | − (Decreases in the levels of Aβ of 5 to 19%) |  | −− (decreases of 20 to 38%) |  | −− (decreases of 20 to 38%) | − (Decreases in the levels of Aβ of 5 to 19%) |  |
| CCNCCCS(=O)(=O)O [CV] |  |  |  |  |  |  |  | Aβ40 Change (total level) (brain homogenate, Day 14, vehicle group, 250 mg/kg daily, total, not soluble/insoluble): − (Decreases in the levels of Aβ of 5 to 19%); Aβ40 Change (total level) [7]: ++ (increases of 40 to 69%); Aβ42 Change (total level) [7]: +++ (increases of 70% or higher); Aβ40 Change [3]: + (increases in the levels of Aβ (relative to untreated control) of 20 to 39%); Aβ42 Change [3]: ++ (increases of 40 to 69%); Aβ40 Change [4]: ++ (increases of 40 to 69%); Aβ42 Change [4]: ++ (increases of 40 to 69%) |
| O=S(=O)(O)CCCNC1CC2CCC1C2 (centres unmarked) [BY] | +++ (increases of 70% or higher) |  | +++ (increases of 70% or higher) | +++ (increases of 70% or higher) | + (increases in the levels of Aβ (relative to untreated control) of 20 to 39%) | +++ (increases of 70% or higher) |  | Aβ40 Change Soluble [1]: +++ (increases of 70% or higher); Aβ40 Change [3]: + (increases in the levels of Aβ (relative to untreated control) of 20 to 39%); Aβ42 Change [3]: + (increases in the levels of Aβ (relative to untreated control) of 20 to 39%) |
| CC(C)(CO)NCCCS(=O)(=O)O [DH] | −− (decreases of 20 to 38%) | −−− (decreases of 39% or more) | −−− (decreases of 39% or more) | − (Decreases in the levels of Aβ of 5 to 19%) |  | − (Decreases in the levels of Aβ of 5 to 19%) |  |  |
| COc1ccc([C@H](C)NCCCS(=O)(=O)O)cc1 [DZ] |  | −− (decreases of 20 to 38%) |  | −− (decreases of 20 to 38%) | − (Decreases in the levels of Aβ of 5 to 19%) | −− (decreases of 20 to 38%) | −− (decreases of 20 to 38%) |  |
| CC(C)(NCCCS(=O)(=O)O)c1ccccc1 [DM] | + (increases in the levels of Aβ (relative to untreated control) of 20 to 39%) | − (Decreases in the levels of Aβ of 5 to 19%) | − (Decreases in the levels of Aβ of 5 to 19%) | −− (decreases of 20 to 38%) | − (Decreases in the levels of Aβ of 5 to 19%) | −− (decreases of 20 to 38%) | −− (decreases of 20 to 38%) |  |
| CC1CC(NCCCS(=O)(=O)O)CC(C)(C)C1 (centres unmarked) [ED] | + (increases in the levels of Aβ (relative to untreated control) of 20 to 39%) |  |  | −− (decreases of 20 to 38%) | − (Decreases in the levels of Aβ of 5 to 19%) | − (Decreases in the levels of Aβ of 5 to 19%) | − (Decreases in the levels of Aβ of 5 to 19%) | Aβ40 Change Soluble [1]: − (Decreases in the levels of Aβ of 5 to 19%) |
